In patent US20250248979A1, “NOVEL GPX4 INHIBITORS AND USES THEREOF” (THE TRUSTEES OF COLUMBIA UNIVERSITY IN THE CITY OF NEW YORK, priority 2022, published 2025):
Changes are numbered by the printed parent chain. Entries after “also recorded” stand apart in the source; their conditions may differ. Like-named read-outs stand apart in the source and are kept apart here.

Columns and labels:
[1] = tested on: Salmonella typhimurium TA98, TA100, TA1535, TA1537
[2] = target: panel of 44 targets (GPCRs, ion channels, enzymes, transporters, nuclear receptors)
HT-1080 cells = assay: Cellular dose response assay, HT-1080 with and without Fer-1; format: cell-based, human; conditions: for ferroptosis induction / potency in HT-1080 cells, result in words: RSL3 as control
Summary of the method: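 Dose-response over 12 twofold concentrations, 48 h exposure, 0.4% DMSO, in cells seeded at 1500 per well overnight. HT-1080 also run plus Fer-1. Endpoint: CellTiter-Glo luminescence.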

HepG2 cells = assay: Cellular dose response assay, HepG2; format: cell-based, human
Excerpt: HT-1080 (human [Homo sapiens] […] fibrosarcoma), A-673 (human [Homo sapiens] […] Ewing's sarcoma), and SK-HEP-1 (human [Homo sapiens] […] hepatic adenocarcinoma), cells were obtained from ATCC. Huh7 (human [Homo sapiens] […] hepatocellular carcinoma), HLF (human [Homo sapiens] […] hepatocellular carcinoma), HepG2 (human [Homo sapiens] […] hepatocellular carcinoma), cells were obtained from the Cancer Cell Bank at Columbia University Irving Medical Center. HT-1080, A-673, Huh-7, and HLF cells were grown in Dulbecco's Modified Eagle Medium (DMEM) supplemented with 10% heat inactivated fetal bovine serum (HI-FBS), 1% non-essential amino acids, and 1% penicillin streptomycin. HepG2 and SK-HEP-1 cells were grown in Eagle's Minimum Essential Medium (EMEM) supplemented with 10% HI-FBS, and 1% penicillin-streptomycin. All cells were cultured at 37° C. and 5% CO2.
HT-1080, HepG2, Huh7, HLF, and SK-HEP-1 cells were seeded into opaque white 384-well plates at 1500 cells per well then incubated at 37° C. with 5% CO2 overnight. The next day, compounds of interest were dissolved in DMSO and 12-point 2-fold dilution series were prepared with and without Fer-1. Cells were treated in triplicate (final DMSO concentration of 0.4% in all wells, including DMSO-only control wells) and incubated for a further 48 hours at 37° C. and 5% CO2. Cell viability was evaluated using CellTiter-Glo (Promega G7573) and luminescence was recorded on a Victor 5 plate reader. Data were analyzed in GraphPad Prism 9 and error bars represent standard deviation values for three technical replicates in a representative experiment.

[3] = tested on: lipid peroxidation in HT-1080 cells; assay: C11-BODIPY lipid peroxidation flow cytometry assay; format: cell-based, human; conditions: HT-1080 cells, with and without fer-1
GPX4 = target: T1, GPX4 (Homo sapiens, UniProt P36969); assay: GPX4 activity assay in cell lysates (NADPH-coupled); format: biochemical; design: endogenous in cells; host or cells: A-673 cell lysate; conditions: for GPX4% inhibition at 200 (μM): mean ± s.d., n = 3
T1 sequence (P36969 1-170 isoform P36969-2): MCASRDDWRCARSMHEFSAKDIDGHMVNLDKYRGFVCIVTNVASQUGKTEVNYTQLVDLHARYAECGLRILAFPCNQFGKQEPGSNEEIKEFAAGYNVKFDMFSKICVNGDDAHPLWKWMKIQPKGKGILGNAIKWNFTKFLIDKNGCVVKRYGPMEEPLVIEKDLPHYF
Summary of the method: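 Native GPX4 in lysates of A-673 cells grown with 20 nM sodium selenite; lysate preincubated with compound 45 min at 37 °C in pH 8.0 buffer with 3 mM GSH, 0.5 mM NADPH and glutathione reductase. Reaction started with phosphatidylcholine hydroperoxide; NADPH consumption followed at 340 nm over 25 min; triplicates.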

GPX4^U46C = target: T2, GPX4^U46C (Homo sapiens, UniProt P36969, U73C); assay: Microscale thermophoresis (MST) binding; conditions: half maximal effective concentration, covalent mechanism
T2 construct: made in house; host or cells: E. coli BL21-Gold (DE3)
T2 sequence (P36969 1-170 isoform P36969-2 U46C): T1 sequence (P36969 1-170 isoform P36969-2) with U46C
Description: The bacterial expression vector pET-15b-His-tagged-c-GPX4^U46C was prepared as previously described (Yang et al. 2016). The C-terminal His-tagged GPX4U46C protein was expressed in E. coli and purified according to a protocol modified from Scheerer et al. 2007. First, pET-15b-His-tagged-c-GPX4^U46C was transformed into XL10-Gold (Agilent #200314) E. coli ultracompetent cells for plasmid DNA production and isolated using QIAprep Spin Miniprep Kit (Qiagen). For protein expression, pET-15b-His-tagged-c-GPX4^U46C was then transformed into BL21-Gold (DE3) E. coli competent cells (Agilent #230132) and plated on LB agar with 100 μg/mL ampicillin. A starter culture was inoculated in 7 mL of LB medium with 100 μg/mL ampicillin using a single colony and allowed to grow in a 37° C. shaker (225 rpm) for 16 hours. 3 mL of the starter culture was added to 1 L of LB medium with 100 μg/mL ampicillin, which was then incubated in a 37° C. shaker (225 rpm) to an OD600 of 0.9. At that point, the incubation temperature was reduced to 15° C. and the culture was allowed to equilibrate for 1 hour. Expression of the recombinant enzyme was induced by addition of isopropyl β-D-1-thiogalactopyranoside (IPTG, 1 mM final concentration) overnight for 12-15 hours shaking at 225 rpm and 15° C. The next morning, cells were harvested by centrifugation at 4000 rpm and 4° C. for 20 minutes. The cell pellet was then frozen at −80° C. for at least 1 hour or until lysis. To lyse the cells, the cell pellet was resuspended with 25 mL of chilled lysis buffer (100 mM Tris pH 8.0, 300 mM NaCl, 20 mM imidazole, 3 mM TCEP, and 2.5 mini tablets of complete Protease Inhibitor Cocktail (Roche-Sigma #11836170001)) then lysed using an Emulsiflex C3 high-pressure homogenizer. To remove cell debris, the lysate was subjected to centrifugation at 10000 rpm and 4° C. for 20 minutes. The supernatant was centrifuged once more at the same conditions, then the clarified lysate was applied onto a 5-mL HisTrap HP column (Cytiva #17-5248-01), washed with 90% Buffer A (100 mM Tris pH 8.0, 300 mM NaCl, 5% glycerol, 3 mM TCEP) 10% Buffer B (Buffer A with 500 mM imidazole), then eluted with a continuous gradient (10-100% Buffer B). The protein was concentrated using Amicon Ultra-15 centrifugal filter units with a 10 kDa molecule weight cutoff (EMD Millipore #UFC901024) then further purified by FPLC on a size exclusion HiLoad Superdex 200 column (Cytiva) in crystallization buffer (20 mM Tris pH 8.0, 300 mM NaCl, 3 mM TCEP). The fractions containing 90-95% pure GPX4 protein, as evaluated by SDS-PAGE, were pooled and concentrated using the same Amicon centrifugal filter units as above to 5 mg/mL. Concentration was determined by Nanodrop. Protein was aliquoted into Eppendorf tubes, flash frozen using liquid nitrogen, and stored at −80° C. until use.
MST experiments were conducted using a Monolith NT.115 (Nanotemper Technologies) according to manufacturer instructions. To label the protein, 90 μL of 200 nM GPX4^U46C was combined with 90 μL of 100 nM RED-tris-NTA dye diluted in PBS buffer with 0.05% Tween 20 (PBST buffer). The mixture was incubated for 30 minutes at room temperature, followed by centrifugation for 10 minutes at 4° C. and 15,000×g. To assess binding of the compounds, a 16-point 2-fold dilution series in PBST buffer was prepared and mixed in a 1:1 ratio with the labeled protein solution for a final volume of 20 μL. The reaction mixture was loaded into standard treated capillary tubes and analyzed with the Monolith NT.115 at 40% LED power and 40% MST power with a laser-on time of 5 seconds. The data were analyzed in MO.Affinity Analysis v2.3 software.

in vitro [4] = format: in vitro ADME, human; conditions: human, microsomes
Description: (§1) […]. The incubation timepoints measured were 0, 5, 10, 15, 30, and 45 minutes. All samples were prepared in duplicate and analyzed by LC-MS/MS.

in vitro [5] = format: in vitro ADME, mouse; conditions: mouse, microsomes
Description: as §1

[6] = not given; remark: listed apart in the source
[7] = read-out: IC50 (M) Reference Compound (EC50 for agonist)

Nc1ccc2cc3ccccc3cc2c1 [Compound 2-Aminoanthracene, 2-Aminoanthracene]
Positive Significance (− to +++) TA98 + S9 ([1]; 1 μM): +++ (Very strong positive, if p < 0.001)
Positive Significance (− to +++) TA100 + S9 ([1]; TA100, + S9, 1 μM): +++ (Very strong positive, if p < 0.001)
Positive Significance (− to +++) TA1535 + S9 ([1]; TA1535, + S9, 1 μM): ++ (Strong positive, if p < 0.01)
Positive Significance (− to +++) TA1537 + S9 ([1]; 1 μM): +++ (Very strong positive, if p < 0.001)

O=[N+]([O-])c1ccc2c(c1)Cc1ccccc1-2 [Compound 2-Nitrofluorene, 2-Nitrofluorene]
Positive Significance (− to +++) TA98 + S9 ([1]; 30 μM): +++ (Very strong positive, if p < 0.001)
Positive Significance (− to +++) TA98 − S9 ([1]; TA98, − S9, 30 μM): +++ (Very strong positive, if p < 0.001)

Nc1c2ccccc2nc2ccccc12 [Compound 9-Aminoacridine, 9-Aminoacridine]
Positive Significance (− to +++) TA1537 + S9 ([1]; 10 μM): ++ (Strong positive, if p < 0.01)
Positive Significance (− to +++) TA1537 − S9 ([1]; TA1537, − S9, 10 μM): +++ (Very strong positive, if p < 0.001)

Clc1ccc(C2CC3CCC2N3)cn1 (stereo not shown) [Epibatidine]
EC50 [2, 7]: 2.5e-09 M

C[C@]12N[C@H](Cc3ccccc31)c1ccccc12 [MK-801]
IC50 [2, 7]: 2.75e-08 M

CNC1(C)C2CCC(C2)C1(C)C (stereo not shown) [Mecamylamine]
IC50 ([2]; read-out: IC50 (M) Reference Compound): 8.31e-07 M
IC50 [2, 7]: 6.8e-07 M

Cn1c(C(=O)n2ccnc2)cc2ccccc21 [QW-057]
ferroptosis induction / potency in HT-1080 cells, result in words (HT-1080 cells): no fer-1 rescue was observed
IC50 (HT-1080 cells; compounds alone, read-out: IC50 (μM) HT1080^a): 64 µM
IC50 (HT-1080 cells; compounds and fer-1 1.0 μM, read-out: IC50 (μM) HT1080^b): 64.2 µM
IC50 (HepG2 cells; compounds alone, read-out: IC50 (μM) HEPG2^a): 97.7 µM
IC50 (HepG2 cells; compounds and fer-1 1.0 μM, read-out: IC50 (μM) HEPG2^b): 82.6 µM
lipid peroxidation (C11-BODIPY), result in words [3]: did not induce lipid peroxidation
fold increase in GPX4 inhibitory activity in comparison to LOC1886 (GPX4; 200 uM): ~2 fold
GPX4% inhibition at 200 (μM) (GPX4): 59.8 ± 12.5%

COc1cccc2[nH]c(C(=O)NC(C)(C)COC(=O)CCl)cc12 [QW-144]
EC50 (GPX4^U46C): 0.836 µM
GPX4% inhibition at 200 (μM) (GPX4; generation 1): 50.0 ± 32.5%

Cc1ccc2[nH]c(C(=O)NC(C)(C)COC(=O)CCl)cc2c1 [QW-155]
EC50 (GPX4^U46C): 473 µM
GPX4% inhibition at 200 (μM) (GPX4; generation 1): 50.9 ± 3.6%

CC(C)(COC(=O)CCl)NC(=O)c1cc2cc(Cl)ccc2[nH]1 [QW-164]
EC50 (GPX4^U46C): 2.1 µM
GPX4% inhibition at 200 (μM) (GPX4; generation 1): 53.3 ± 37.8%

Cn1nc(C(=O)NC(C)(C)CNC(=O)CCl)c2ccc(Br)cc21 [QW-624]
lipid peroxidation (C11-BODIPY), result in words [3]: still active in lipid peroxidation assay
Microsome Stability t1/2 (min) human (in vitro [4]): 8.8 min
Microsome Stability t1/2 (min) mouse (in vitro [5]): 1.2 min
Plasma Stability t1/2 (min) human: 142 min
Plasma Stability t1/2 (min) mouse [6]: 685 min
GPX4% inhibition at 2.5 μM (GPX4; generation 2): −9.6 ± 4.4%

CCOc1ccc(-c2ccc3c(C(=O)NC(C)(C)COC(=O)CCl)nn(C)c3c2)cc1Cl [QW-655]
IC50 (HT-1080 cells; HT1080 + Fer-1, read-out: IC50 (uM) HT1080 + Fer-1): 15.6 µM
IC50 (HT-1080 cells; HT1080, without Fer-1, read-out: IC50 (uM) HT1080): 0.7 µM
ferroptosis induction / potency in HT-1080 cells, result in words (HT-1080 cells): sub-micromolar GI50 value; also recorded: sub-molar range cellular activities and decreased ferroptosis selectivity
Selectivity (HT-1080 cells; ferroptosis selectivity, HT1080 + Fer-1 vs HT1080): 22.3
Plasma Stability t1/2 (min) human (Plasma stability, human): 16.8 min
Plasma Stability t1/2 (min) mouse (Plasma stability, mouse): 2.6 min
GPX4 inhibitory activity, result in words (GPX4): greatest potency; also recorded: slightly higher potencies than their parent compound
GPX4% inhibition at 2.5 μM (GPX4): 106.9 ± 5.6%
